Data as given in PubChem BioAssay AID306 (DTP/NCI, 2004).
“And” between values parts separate entries of the source, which are not always exact repeats. Equal entries are not always repeated. Inconclusive results and toxic doses are left out.

Test system: BDF1 mice, L1210 Methyl-GAG-resistant leukemia, survival T/C
Experiment: NCI In Vivo Anticancer Drug Screen. Data for tumor model L1210 Leukemia resistant to Methyl-GAG; NSC 32946 (subcutaneous) in B6D2F1 (BDF1) mice
Conditions: endpoint: mean survival time, higher = longer survival
Procedure: The antitumor activity of compounds was measured in mice bearing transplantable tumors. Survival or tumor size were measured and the results are expressed as the measurement made in the treated group (T) divided by the measurement made in the vehicle treated control group (C). The tumor model used in this assay is L1210 Leukemia resistant to Methyl-GAG; NSC 32946 (subcutaneous) in B6D2F1 (BDF1) mice

[1] = dose: 12.5 mg/kg/injection, schedule: Q01DX Z (ip), vehicle: carboxymethylcellulose (CMC)
[2] = dose: 25.0 mg/kg/injection, schedule: Q01DX Z (ip), vehicle: carboxymethylcellulose (CMC)
[3] = dose: 50.0 mg/kg/injection, schedule: Q01DX Z (ip), vehicle: carboxymethylcellulose (CMC)
[4] = dose: 100.0 mg/kg/injection, schedule: Q01DX Z (ip), vehicle: carboxymethylcellulose (CMC)
[5] = dose: 200.0 mg/kg/injection, schedule: Q01DX Z (ip), vehicle: carboxymethylcellulose (CMC)
[6] = dose: 3.1 mg/kg/injection, schedule: Q01DX Z (ip), vehicle: water
[7] = dose: 6.25 mg/kg/injection, schedule: Q01DX Z (ip), vehicle: carboxymethylcellulose (CMC)
[8] = dose: 2.0 mg/kg/injection, schedule: Q01DX Z (ip), vehicle: carboxymethylcellulose (CMC)
[9] = dose: 4.0 mg/kg/injection, schedule: Q01DX Z (ip), vehicle: carboxymethylcellulose (CMC)

Compound: CC(=O)Nc1ccc2nc3ccc(NC(C)=O)cc3[n+](-c3ccccc3)c2c1
- T/C [1]: 97 % of control
- T/C [2]: 97 % of control
- T/C [3]: 113 % of control
- T/C [4]: 98 % of control
- T/C [5]: 88 % of control
- T/C (dose: 400.0 mg/kg/injection, schedule: Q01DX Z (ip), vehicle: carboxymethylcellulose (CMC)): 93 % of control

Compound: CC(=O)O[C@]1(C(C)=O)CC[C@H]2[C@@H]3C[C@H](C)C4=CC(=O)C=C[C@]4(C)[C@@]3(F)[C@@H](O)C[C@@]21C
- T/C (dose: 10.0 mg/kg/injection, schedule: Q01DX Z (sc), vehicle: steriod suspending solution): 102 % of control
- T/C (dose: 20.0 mg/kg/injection, schedule: Q01DX Z (sc), vehicle: steriod suspending solution): 105 % of control
- T/C (dose: 40.0 mg/kg/injection, schedule: Q01DX Z (sc), vehicle: steriod suspending solution): 121 % of control
- T/C (dose: 80.0 mg/kg/injection, schedule: Q01DX Z (sc), vehicle: steriod suspending solution): 114 % of control
- T/C (dose: 160.0 mg/kg/injection, schedule: Q01DX Z (sc), vehicle: steriod suspending solution): 121 % of control
- T/C (dose: 320.0 mg/kg/injection, schedule: Q01DX Z (sc), vehicle: steriod suspending solution): 115 % of control

Compound: CN(C)c1ccc(/C=C/c2ccnc3ccccc23)cc1
- T/C [6]: 102 % of control
- T/C (dose: 3.12 mg/kg/injection, schedule: Q01DX Z (ip), vehicle: carboxymethylcellulose (CMC)): 100 % of control
- T/C [7]: 96 % of control
- T/C (dose: 6.25 mg/kg/injection, schedule: Q01DX Z (ip), vehicle: water): 97 % of control
- T/C [1]: 94 % of control
- T/C (dose: 12.5 mg/kg/injection, schedule: Q01DX Z (ip), vehicle: water): 97 % of control
- T/C [2]: 100 % of control
- T/C (dose: 25.0 mg/kg/injection, schedule: Q01DX Z (ip), vehicle: water): 100 % of control
- T/C [3]: 94 % of control
- T/C (dose: 50.0 mg/kg/injection, schedule: Q01DX Z (ip), vehicle: water): 91 % of control
- T/C [4]: 100 % of control

Compound: Cn1cnc([N+](=O)[O-])c1Sc1nc(N)nc2nc[nH]c12
- T/C (dose: 1.0 mg/kg/injection, schedule: Q01DX Z (ip), vehicle: carboxymethylcellulose (CMC)): 98 % of control
- T/C [8]: 106 % of control
- T/C [9]: 162 % of control
- T/C (dose: 8.0 mg/kg/injection, schedule: Q01DX Z (ip), vehicle: carboxymethylcellulose (CMC)): 88 % of control

Compound: CN(Cc1cnc2nc(N)nc(N)c2n1)c1ccc(C(=O)N[C@@H](CCC(=O)O)C(=O)O)cc1
- T/C (dose: 0.31 mg/kg/injection, schedule: Q01DX Z (ip), vehicle: other): 157 % of control and 164 % of control (2×)
- T/C (dose: 0.43 mg/kg/injection, schedule: Q01DX Z (ip), vehicle: other): 160 % of control
- T/C (dose: 0.62 mg/kg/injection, schedule: Q01DX Z (ip), vehicle: other): 235 % of control and 245 % of control and 246 % of control
- T/C (dose: 0.87 mg/kg/injection, schedule: Q01DX Z (ip), vehicle: other): 255 % of control
- T/C (dose: 1.25 mg/kg/injection, schedule: Q01DX Z (ip), vehicle: other): 262 % of control and 270 % of control and 276 % of control
- T/C (dose: 1.5 mg/kg/injection, schedule: Q01DX Z (ip), vehicle: other): 194 % of control
- T/C (dose: 1.75 mg/kg/injection, schedule: Q01DX Z (ip), vehicle: other): 301 % of control
- T/C (dose: 2.5 mg/kg/injection, schedule: Q01DX Z (ip), vehicle: other): 178 % of control
- T/C (dose: 3.0 mg/kg/injection, schedule: Q01DX Z (ip), vehicle: other): 234 % of control
- T/C (dose: 3.5 mg/kg/injection, schedule: Q01DX Z (ip), vehicle: other): 116 % of control
- T/C (dose: 5.0 mg/kg/injection, schedule: Q01DX Z (ip), vehicle: other): 95 % of control and 118 % of control

Compound: CN(C)c1ccc(Nc2c3ccccc3nc3ccccc23)cc1
- T/C (dose: 1.6 mg/kg/injection, schedule: Q01DX Z (ip), vehicle: carboxymethylcellulose (CMC)): 105 % of control
- T/C (dose: 3.1 mg/kg/injection, schedule: Q01DX Z (ip), vehicle: carboxymethylcellulose (CMC)): 99 % of control
- T/C [7]: 100 % of control
- T/C [1]: 103 % of control
- T/C [2]: 115 % of control
- T/C [5]: 91 % of control

Compound: Nc1nc(=S)c2[nH]cnc2[nH]1
- T/C (dose: 0.12 mg/kg/injection, schedule: Q01DX Z (ip), vehicle: carboxymethylcellulose (CMC)): 98 % of control
- T/C (dose: 0.25 mg/kg/injection, schedule: Q01DX Z (ip), vehicle: carboxymethylcellulose (CMC)): 93 % of control
- T/C (dose: 0.5 mg/kg/injection, schedule: Q01DX Z (ip), vehicle: carboxymethylcellulose (CMC)): 96 % of control
- T/C [8]: 164 % of control and 168 % of control
- T/C [9]: 118 % of control

Compound: CN(Cc1cnc2nc(N)nc(N)c2n1)c1c(Cl)cc(C(=O)NC(CCC(=O)O)C(=O)O)cc1Cl (configuration not stated)
- T/C [1]: 116 % of control
- T/C [3]: 195 % of control
- T/C [4]: 317 % of control

Compound: O=C(Nc1ccc(C2=NCCCN2)cc1)c1ccc(C(=O)Nc2ccc(C3=NCCCN3)cc2)cc1
- T/C (dose: 0.2 mg/kg/injection, schedule: Q01DX Z (ip), vehicle: water): 100 % of control
- T/C (dose: 0.4 mg/kg/injection, schedule: Q01DX Z (ip), vehicle: water): 108 % of control
- T/C (dose: 0.8 mg/kg/injection, schedule: Q01DX Z (ip), vehicle: water): 121 % of control
- T/C (dose: 1.6 mg/kg/injection, schedule: Q01DX Z (ip), vehicle: water): 158 % of control and 211 % of control
- T/C [6]: 212 % of control

Compound: O=c1cn[nH]c(=O)[nH]1
- T/C (dose: 62.5 mg/kg/injection, schedule: Q01DX Z (ip), vehicle: carboxymethylcellulose (CMC)): 96 % of control
- T/C (dose: 125.0 mg/kg/injection, schedule: Q01DX Z (ip), vehicle: carboxymethylcellulose (CMC)): 106 % of control
- T/C (dose: 250.0 mg/kg/injection, schedule: Q01DX Z (ip), vehicle: carboxymethylcellulose (CMC)): 116 % of control
- T/C (dose: 500.0 mg/kg/injection, schedule: Q01DX Z (ip), vehicle: carboxymethylcellulose (CMC)): 114 % of control
- T/C (dose: 1000.0 mg/kg/injection, schedule: Q01DX Z (ip), vehicle: carboxymethylcellulose (CMC)): 112 % of control

Compound: CS(=O)(=O)OCCCl
- T/C [1]: 89 % of control
- T/C [2]: 96 % of control
- T/C [3]: 92 % of control
- T/C [4]: 113 % of control

Compound: O=c1cnn(C2OC(CO)C(O)C2O)c(=O)[nH]1 (configuration not stated)
- T/C (dose: 8.0 mg/kg/injection, schedule: Q01DX Z (ip), vehicle: water): 112 % of control
- T/C (dose: 16.0 mg/kg/injection, schedule: Q01DX Z (ip), vehicle: water): 122 % of control
- T/C (dose: 1000.0 mg/kg/injection, schedule: Q01DX Z (ip), vehicle: water): 110 % of control

Compound: O=C1CCC(N2C(=O)c3ccccc3C2=O)C(=O)N1 (configuration not stated)
- T/C (dose: 18.75 mg/kg/injection, schedule: Q01DX Z (ip), vehicle: carboxymethylcellulose (CMC)): 96 % of control
- T/C (dose: 37.5 mg/kg/injection, schedule: Q01DX Z (ip), vehicle: carboxymethylcellulose (CMC)): 102 % of control
- T/C (dose: 75.0 mg/kg/injection, schedule: Q01DX Z (ip), vehicle: carboxymethylcellulose (CMC)): 102 % of control
- T/C (dose: 150.0 mg/kg/injection, schedule: Q01DX Z (ip), vehicle: carboxymethylcellulose (CMC)): 94 % of control

Compound: NC(=O)c1ccc(N)nc1
- T/C (dose: 0.31 mg/kg/injection, schedule: Q01DX Z (ip), vehicle: saline): 106 % of control
- T/C (dose: 0.31 mg/kg/injection, schedule: Q01DX Z (ip), vehicle: water): 102 % of control
- T/C (dose: 0.63 mg/kg/injection, schedule: Q01DX Z (ip), vehicle: saline): 101 % of control
- T/C (dose: 0.63 mg/kg/injection, schedule: Q01DX Z (ip), vehicle: water): 115 % of control
- T/C (dose: 1.25 mg/kg/injection, schedule: Q01DX Z (ip), vehicle: saline): 98 % of control

Compound: C[C@]12CC[C@H](OC3OC(CO)C(O)C(O)C3O)C[C@H]1CC[C@@H]1[C@@H]2CC[C@]2(C)[C@@H](C3=CCOC3=O)CC[C@]12O (some centres not stated)
- T/C (dose: 0.06 mg/kg/injection, schedule: Q01DX Z (ip), vehicle: saline): 94 % of control
- T/C (dose: 0.12 mg/kg/injection, schedule: Q01DX Z (ip), vehicle: saline): 92 % of control
- T/C (dose: 0.25 mg/kg/injection, schedule: Q01DX Z (ip), vehicle: saline): 91 % of control
- T/C (dose: 0.5 mg/kg/injection, schedule: Q01DX Z (ip), vehicle: saline): 91 % of control
- T/C (dose: 4.0 mg/kg/injection, schedule: Q01DX Z (ip), vehicle: saline): 90 % of control
- T/C (dose: 16.0 micrograms/kg/injection, schedule: Q01DX Z (ip), vehicle: saline): 97 % of control
- T/C (dose: 32.0 micrograms/kg/injection, schedule: Q01DX Z (ip), vehicle: saline): 102 % of control
- T/C (dose: 1000.0 micrograms/kg/injection, schedule: Q01DX Z (ip), vehicle: saline): 107 % of control
- T/C (dose: 2000.0 micrograms/kg/injection, schedule: Q01DX Z (ip), vehicle: saline): 105 % of control
